Series [1] is described as follows: Lethal doses / percentage mortality, oral. Type of series: in vivo. The note with it: 2 000 mg/Kg/p.o.; 2000 mg/kg. From the text:
As a result of a comparison between the pharmacologically active doses mentioned above and the lethal doses listed in the following Table XII, the difference between said doses is sufficiently great to permit the utilisation of the compounds of formula (I) in therapeutics.

For series [2], the system named is gastric ulcers, provoked in a rat by tying of the pylorus (Shay ulcers). The series is described as follows: Antiulcerous: reduction of Shay ulcers (tying of the pylorus). The class given is in vivo. The following applies: 50 mg/Kg/i.d. How it is done: The compounds of formula (I) administered by intraduodenal means reduce the extent of gastric ulcers, provoked in a rat by tying of the pylorus (Shay ulcers).
By way of example, there is listed in the following Table IX, the results obtained by the administrations of 50 mg/Kg/i.d. of different compounds of formula (I).

The test system of series [3] is oedema caused by the sub-plantar injection of carraghenin. As to the kind of experiment: Antiinflammatory: reduction of sub-plantar oedema caused by carraghenin, rat. The class given is in vivo. The following applies: 100 mg/Kg/p.o. As to the method: These properties are shown by a diminution of the local oedema caused by the sub-plantar injection of a phlogogenic agent, such as carraghenin, in the rat following the oral administration of compounds of formula (I).
The following Table VI lists, by way of example, the percentage reduction of the oedems caused by the sub-plantar injection of carraghenin, resulting from the administration of 100 mg/Kg/p.o. of different compounds of formula (I).

The test system of series [4] is isolated ileum of the guinea-pig. As to the kind of experiment: Antihistaminic: opposing histamine contraction of isolated ileum. The following applies: promethazine as standard. How it is done: The compounds of formula I, introduced in the conserving medium, are capable of opposing the contractural action of histamine on the isolated ileum of the guinea-pig. This activity is evaluated by taking promethazine as standard.

The test system of series [5] is bronchoconstriction provoked in the guinea-pig by acetylcholine. As to the kind of experiment: Antibronchoconstrictive and anticholinergic: bronchoconstriction by intravenous acetylcholine, Konzett method. The class given is in vivo. From the text: Injected by intraveinous or intraduodenal means, the compounds of formula (I) are capable of opposing the bronchoconstriction provoked in the guinea-pig by the itraveinous injection of acetylcholine by the Konzett method.
By way of example, the following Table VII lists the results obtained by the administration of different compounds of formula (I)

The next series relates to volume of urine emitted. The series is described as follows: Diuretic: augmentation of urinary elimination. The following applies: 25 mg/Kg/p.o., mouse, 6 hours. The class given is in vivo. How it is done:
The compounds of formula (I), administered by oral means to the mouse, simultaneously with a volume of 1 ml. of an isotonic solution of sodium chloride per 25 g of the corporeal weight of the mouse, are capable of provoking an augmentation of the volume of urine emitted by reference to control animals, the volume being measured for 6 hours following administration.
By way of example, the following Table XI lists the results obtained by the administration of 25 mg/Kg/p.o. of different compounds of formula (I).

For series [6], the system named is rat suffering from high blood pressure. The series is described as follows: Antihypertensive: return of systolic arterial pressure to normal in rats with high blood pressure. The class given is in vivo. The following applies: 200 mg/Kg/p.o. From the text: The compounds of formula (I), administered by oral means to a rat suffering from high blood pressure, are capable of lowering the systolic arteriel pressure.
By way of example, there is provided in the following Table IV the results obtained by administration of different compounds of formula (I).

In series [7] the test system is excursions into the escape enclosure. The series is described as follows: Central nervous system stimulation: excursions in the escape test. The note with it: 100 mg/Kg/p.o., mouse. Type of series: in vivo. How it is done: The compounds of formula (I), administered by oral means to the mouse, provoke an augmentation of the number of excursions into the escape enclosure.
Thus, following the administration of 100 mg/Kg/p.o. of the compounds of Code Nos. 72 457 and 72 736, an augmentation of 30% in the number of excursions in the escape test, is observed.

In series [8] the test system is isolated heart of a guinea-pig. The series is described as follows: Vasodilatatory: coronary flow of isolated heart. The note with it: 1 μg/ml in perfusion liquid. How it is done: The compounds of formula (I) are capable of augmenting the flow of the coronary vessels of the isolated heart of a guinea-pig when said compounds are added in the perfusion liquid of said organ.
By way of example, there can be found in the following Table X, the percentage augmentation of the flow of the isolated heart of a guinea-pig by adding different compounds of formula (I) to the perfusion liquid, in a concentration of 1 μg/ml.

Series [9] deals with explorations in the escape enclosure. As to the kind of experiment: Sedative: reduction of number of explorations in the escape enclosure. The class given is in vivo. The following applies: 100 mg/Kg/p.o., mouse. How it is done: The compounds of formula (I), administered by oral means to the mouse, reduce the number of explorations in the escape enclosure.
By way of example, the following Table VIII lists the results obtained by the administration of 100 mg/Kg/p.o. of different compounds of formula (I).

Series [10] concerns isolated duodenum of the rat. As to the kind of experiment: Spasmolytic: opposing barium chloride contraction of isolated duodenum. The following applies: papaverine as standard. How it is done: The compounds of formula (I), introduced in the conserving medium are capable of opposing the contractural action of barium chloride on the isolated duodenum of the rat. This activity is evaluated by taking papaverine as standard.

This is an account of results in US3962256A, “2-Aminomethyl benzimidazole derivatives” (Delalande S.A., priority 1973, dated 1976).

Each structure is given as a SMILES string.

With `O=C(CCn1c(CN2CCCC2)nc2ccccc21)c1ccc(Cl)cc1` [72 366], the Percentage mortality in series [1] is 0%. For the same molecule, in [2], the “Percentage reduction of Shay ulcers” value amounted to 40%. Further, in series [3], the “Percentage reduction of sub-plantar oedema” value is 60%. Also, the “antihistaminic activity relative to promethazine” value in [4] is “equivalent activity to that of promethazine”.

In [1], `Cc1ccc(C(=O)CCn2c(CN3CCOCC3)nc3ccccc32)c(C)c1` [72 447] displayed a Percentage mortality of 0%. For the same molecule, the “Percentage reduction of Shay ulcers” value in [2] was found to be 35%. The “Percentage reduction of sub-plantar oedema” value in series [3] came to 40%. Besides, the “Percentage inhibition of bronchoconstriction” value (from here on “Percentage inhibition”) in series [5] (100 mg/kg/i.d.) was 50%. For the same molecule, the “Percentage augmentation of urinary elimination” value in the series with volume of urine emitted was determined as 70%.

In [1], `Cc1ccc(C(=O)CCn2c(CN(C)C)nc3ccccc32)cc1` [72 457] gave a Percentage mortality of 0%. In addition, in [6], the “Percentage of rats with high blood pressure whose systolic arteriel pressure is returned to normal” value was 50%. The “Percentage reduction of Shay ulcers” value in [2] is given as 30%. Moreover, the “augmentation in the number of excursions in the escape test” value in series [7] amounted to 30%. Also, the “Percentage inhibition” value in series [5] (100 mg/kg/i.d.) worked out at 80%. Also, in the series on volume of urine emitted, the “Percentage augmentation of urinary elimination” value was 45%.

For the molecule `CCN(CC)Cc1nc2ccccc2n1CCC(=O)c1ccc(OC)c(OC)c1.O=C(O)/C=C\C(=O)O` [72 692], the “Percentage augmentations of flow of isolated heart of a guinea-pig” value in series [8] worked out at 60%. The “Percentage reduction of number of explorations in the escape enclosure” value in [9] worked out at 30%. The “Percentage augmentation of urinary elimination” value with volume of urine emitted was found to be 70%.

With `CCN(CC)Cc1nc2ccccc2n1CCC(=O)c1ccc(C)cc1C.O=C(O)/C=C\C(=O)O` [72 736], in series [2], the “Percentage reduction of Shay ulcers” value is 30%. Besides, the “augmentation in the number of excursions in the escape test” value in series [7] is on record as 30%. In addition, in series [10], the “spasmolytic activity relative to papaverine” value is “equivalent spasmolytic actvity to that of papaverine”. Besides, in series [5] (10 mg/kg/i.v.), the “Percentage inhibition” value is listed as 90%.
